Experimental data: patent publication US8039514B2, “Sulfonamide compounds and use thereof” (Asahi Kasei Pharma Corporation, priority 2008, dated 2011)

Target: T1, human calcium-sensing receptor (CaSR) (Homo sapiens, UniProt P41180)
T1 construct: expressed in transfected cells
T1 sequence (P41180 20-1078): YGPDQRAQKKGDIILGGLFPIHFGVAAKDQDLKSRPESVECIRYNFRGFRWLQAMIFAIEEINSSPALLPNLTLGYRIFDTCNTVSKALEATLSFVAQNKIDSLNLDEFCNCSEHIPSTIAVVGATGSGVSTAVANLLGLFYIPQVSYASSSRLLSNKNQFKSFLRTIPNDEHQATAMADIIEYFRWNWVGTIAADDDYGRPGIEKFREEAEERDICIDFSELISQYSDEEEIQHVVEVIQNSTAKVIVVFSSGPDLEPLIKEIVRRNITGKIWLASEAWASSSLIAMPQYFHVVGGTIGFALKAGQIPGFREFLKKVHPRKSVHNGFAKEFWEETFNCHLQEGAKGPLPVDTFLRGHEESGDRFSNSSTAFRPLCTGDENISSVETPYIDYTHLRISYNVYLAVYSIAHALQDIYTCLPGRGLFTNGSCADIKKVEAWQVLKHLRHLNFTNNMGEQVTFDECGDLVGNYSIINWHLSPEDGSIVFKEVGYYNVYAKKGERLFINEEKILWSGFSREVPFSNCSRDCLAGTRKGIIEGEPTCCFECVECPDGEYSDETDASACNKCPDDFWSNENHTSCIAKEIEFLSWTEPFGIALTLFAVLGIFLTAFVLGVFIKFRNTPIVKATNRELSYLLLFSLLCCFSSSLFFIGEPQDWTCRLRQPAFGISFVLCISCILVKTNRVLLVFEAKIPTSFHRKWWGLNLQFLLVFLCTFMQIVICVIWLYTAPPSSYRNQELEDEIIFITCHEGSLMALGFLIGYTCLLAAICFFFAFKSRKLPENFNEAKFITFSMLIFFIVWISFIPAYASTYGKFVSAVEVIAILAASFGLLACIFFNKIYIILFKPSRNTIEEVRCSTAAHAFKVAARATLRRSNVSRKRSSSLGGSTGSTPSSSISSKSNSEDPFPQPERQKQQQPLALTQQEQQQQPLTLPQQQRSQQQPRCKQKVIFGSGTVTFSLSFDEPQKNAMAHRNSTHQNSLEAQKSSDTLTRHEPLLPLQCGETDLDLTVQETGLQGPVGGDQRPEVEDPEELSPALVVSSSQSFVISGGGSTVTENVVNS
Test: intracellular Ca assay, CaSR antagonist activity in HEK293/hCaSR cells
Format: cell-based
Conditions: Fura2-AM, inhibition of response to calcium chloride ligand solution, read-out: IC50 values according to the intracellular Ca assay (CaSR antagonist activity)
Outline: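 HEK293/hCaSR cells were loaded with Fura2-AM and pre-incubated with compound for 160 s at 37° C in HEPES buffer (pH 7.4, 0.8 mM CaCl2), then challenged with calcium ligand solution. Read-out was the peak 340/380 nm fluorescence ratio; inhibition is relative to no-compound (0%) and no-calcium-ligand (100%) controls.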

IC50, ≤ 300 nM:
CN(C[C@H](O)CNC(C)(C)CC1Cc2ccccc2C1)S(=O)(=O)c1cc(-c2cc(F)cc(C(=O)O)c2)cc(C(F)(F)F)c1 [Exp. 3-128, (R)-3′-(N-(3-(1-(2,3-dihydro-1H-inden-2-yl)-2-methylpropan-2-ylamino)-2-hydroxypropyl)-N-methylsulfamoyl)-5-fluoro-5′-(trifluoromethyl)biphenyl-3-carboxylic acid]
CN(C[C@H](O)CNC(C)(C)CC1Cc2ccccc2C1)S(=O)(=O)c1cccc(-c2ccc(C(=O)O)s2)c1 [Exp. 3-130, (R)-5-(3-(N-(3-(1-(2,3-dihydro-1H-inden-2-yl)-2-methylpropan-2-ylamino)-2-hydroxypropyl)-N-methylsulfamoyl)phenyl)thiophen-2-carboxylic acid]
CN(C[C@H](O)CNC(C)(C)CC1Cc2ccccc2C1)S(=O)(=O)c1cc(-c2ccc(CC(=O)O)cc2)cc(C(F)(F)F)c1 [Exp. 3-133, (R)-2-(3′-(N-(3-(1-(2,3-dihydro-1H-inden-2-yl)-2-methylpropan-2-ylamino)-2-hydroxypropyl)-N-methylsulfamoyl)-5′-(trifluoromethyl)biphenyl-4-yl)acetic acid]
CN(C[C@H](O)CNC(C)(C)CC1Cc2ccccc2C1)S(=O)(=O)c1c(Cl)cc(-c2ccc(CC(=O)O)cc2)cc1Cl [Exp. 3-140, (R)-2-(3′,5′-dichloro-4′-(N-(3-(1-(2,3-dihydro-1H-inden-2-yl)-2-methylpropan-2-ylamino)-2-hydroxypropyl)-N-methylsulfamoyl)biphenyl-4-yl)acetic acid]
CCc1cc(-c2ccc(CC(=O)O)cc2)ccc1S(=O)(=O)N(C)C[C@H](O)CNC(C)(C)CC1Cc2ccccc2C1 [Exp. 3-147, (R)-2-(4′-(N-(3-(1-(2,3-dihydro-1H-inden-2-yl)-2-methylpropan-2-ylamino)-2-hydroxypropyl)-N-methylsulfamoyl)-3′-ethylbiphenyl-4-yl)acetic acid]
CN(C[C@H](O)CNC(C)(C)CC1Cc2ccccc2C1)S(=O)(=O)c1cc(-c2cccc(CC(=O)O)c2)cc(C(F)(F)F)c1 [Exp. 3-154, (R)-2-(3′-(N-(3-(1-(2,3-dihydro-1H-inden-2-yl)-2-methylpropan-2-ylamino)-2-hydroxypropyl)-N-methylsulfamoyl)-5′-(trifluoromethyl)biphenyl-3-yl)acetic acid]
Cc1cc(S(=O)(=O)N(C)C[C@H](O)CNC(C)(C)CC2Cc3ccccc3C2)ccc1-c1cccc(CCC(=O)O)c1 [Exp. 3-178, (R)-3-(4′-(N-(3-(1-(2,3-dihydro-1H-inden-2-yl)-2-methylpropan-2-ylamino)-2-hydroxypropyl)-N-methylsulfamoyl) 2′-methylbiphenyl-3-yl)propionic acid]
CN(C[C@H](O)CNC(C)(C)CC1Cc2ccccc2C1)S(=O)(=O)c1cc(F)c(-c2cccc(CCC(=O)O)c2)cc1F [Exp. 3-180, (R)-3-(4′-(N-(3-(1-(2,3-dihydro-1H-inden-2-yl)-2-methylpropan-2-ylamino)-2-hydroxypropyl)-N-methylsulfamoyl)-2′,5′-difluorobiphenyl-3-yl)propionic acid]
CN(C[C@H](O)CNC(C)(C)CCCc1ccccc1)S(=O)(=O)c1ccc(-c2cccc(CCC(=O)O)c2)c(Cl)c1 [Exp. 3-185, (R)-3-(2′-chloro-4′-(N-(2-hydroxy-3-(2-methyl-5-phenylpentan-2-ylamino)propyl)-N-methylsulfamoyl)biphenyl-3-yl)propionic acid]
CCc1cc(-c2cccc(CCC(=O)O)c2)ccc1S(=O)(=O)N(C)C[C@H](O)CNC(C)(C)CCCc1ccccc1 [Exp. 3-187, (R)-3-(3′-ethyl-4′-(N-(2-hydroxy-3-(2-methyl-5-phenylpentan-2-ylamino)propyl)-N-methylsulfamoyl)biphenyl-3-yl)propionic acid]
CN(C[C@H](O)CNC(C)(C)CC1Cc2ccccc2C1)S(=O)(=O)c1cc(-c2ccc(F)c(C(=O)O)c2)cc(C(F)(F)F)c1 [Exp. 3-193, (R)-3′-(N-(3-(1-(2,3-dihydro-1H-inden-2-yl)-2-methylpropan-2-ylamino)-2-hydroxypropyl)-N-methylsulfamoyl)-4-fluoro-5′-(trifluoromethyl)biphenyl-3-carboxylic acid]
Cc1cc(-c2cc(C(F)(F)F)cc(S(=O)(=O)N(C)C[C@H](O)CNC(C)(C)CC3Cc4ccccc4C3)c2)ccc1C(=O)O [Exp. 3-197, (R)-3′-(N-(3-(1-(2,3-dihydro-1H-inden-2-yl)-2-methylpropan-2-ylamino)-2-hydroxypropyl)-N-methylsulfamoyl)-3-methyl-5′-(trifluoromethyl)biphenyl-4-carboxylic acid]
CN(C[C@H](O)CNC(C)(C)CC1Cc2ccccc2C1)S(=O)(=O)c1cccc(-c2cccc(C(=O)O)c2F)c1 [Exp. 3-201, (R)-3′-(N-(3-(1-(2,3-dihydro-1H-inden-2-yl)-2-methylpropan-2-ylamino)-2-hydroxypropyl)-N-methylsulfamoyl)-2-fluorobiphenyl-3-carboxylic acid]
CN(C[C@H](O)CNC(C)(C)CC1Cc2ccccc2C1)S(=O)(=O)c1ccc(-c2ccc(C(=O)O)c(Cl)c2)cc1C(F)(F)F [Exp. 3-213, (R)-3-chloro-4′-(N-(3-(1-(2,3-dihydro-1H-inden-2-yl)-2-methylpropan-2-ylamino)-2-hydroxypropyl)-N-methylsulfamoyl)-3′-(trifluoromethyl)biphenyl-4-carboxylic acid]
Cc1cc(C(=O)O)ccc1-c1cccc(S(=O)(=O)N(C)C[C@H](O)CNC(C)(C)CC2Cc3ccccc3C2)c1 [Exp. 3-220, (R)-3′-(N-(3-(1-(2,3-dihydro-1H-inden-2-yl)-2-methylpropan-2-ylamino)-2-hydroxypropyl)-N-methylsulfamoyl)-2-methylbiphenyl-4-carboxylic acid]
CN(C[C@H](O)CNC(C)(C)CC1Cc2ccccc2C1)S(=O)(=O)c1cccc(-c2ccc(OCC(=O)O)c(Cl)c2)c1 [Exp. 3-223, (R)-2-(3-chloro-3′-(N-(3-(1-(2,3-dihydro-1H-inden-2-yl)-2-methylpropan-2-ylamino)-2-hydroxypropyl)-N-methylsulfamoyl)biphenyl-4-yloxy)acetic acid]
CN(C[C@H](O)CNC(C)(C)CC1Cc2ccccc2C1)S(=O)(=O)c1cccc(-c2c(Cl)cc(C(=O)O)cc2Cl)c1 [Exp. 3-228, (R)-2,6-dichloro-3′-(N-(3-(1-(2,3-dihydro-1H-inden-2-yl)-2-methylpropan-2-ylamino)-2-hydroxypropyl)-N-methylsulfamoyl)biphenyl-4-carboxylic acid]
CN(C[C@H](O)CNC(C)(C)CC1Cc2ccccc2C1)S(=O)(=O)c1ccc(-c2ccc(C(=O)O)nc2)c(C(F)(F)F)c1 [Exp. 3-231, (R)-5-(4-(N-(3-(1-(2,3-dihydro-1H-inden-2-yl)-2-methylpropan-2-ylamino)-2-hydroxypropyl)-N-methylsulfamoyl)-2-(trifluoromethyl)phenyl)picolinic acid]
CCc1cc(-c2ccc(CCC(=O)O)cc2Cl)ccc1S(=O)(=O)N(C)C[C@H](O)CNC(C)(C)CC1Cc2ccccc2C1 [Exp. 5-16, (R)-3-(2-chloro-4′-(N-(3-(1-(2,3-dihydro-1H-inden-2-yl)-2-methylpropan-2-ylamino)-2-hydroxypropyl)-N-methylsulfamoyl)-3′-ethylbiphenyl-4-yl)propionic acid]
CN(C[C@H](O)CNC(C)(C)CC1Cc2ccccc2C1)S(=O)(=O)c1ccc(-c2cc(CCC(=O)O)ccc2F)cc1C(F)(F)F [Exp. 5-18, (R)-3-(4′-(N-(3-(1-(2,3-dihydro-1H-inden-2-yl)-2-methylpropan-2-ylamino)-2-hydroxypropyl)-N-methylsulfamoyl)-6-fluoro-3′-(trifluoromethyl)biphenyl-3-yl)propionic acid]
